Source: patent US11655247B2, “Nanoluc suicide substrates” (PROMEGA CORPORATION, priority 2018, dated 2023)

Legend:
NanoLuc [1] = target: T1, NanoLuc (Oplophorus gracilirostris, UniProt Q9GV45, A31E/A60N/A81I/F95D/I117V/K70R/L54V/L99Q/M102K/N193R/P142E/Q151K/Q38R/Q45L/V71I/Y165I); format: biochemical; settings: for RLU (at 100 μM): relative value, Furimazine set to 1, NanoLuc, read three minutes after substrate addition
Procedure: Luminescence Assay Procedure:
Each compound to be screened was dissolved in DMSO (5 mM) and then further diluted to 100 μM in NANO-GLO® Luciferase Assay Buffer. Km values were determined by first serially diluting substrates two-fold into NANO-GLO® Luciferase Assay Buffer. Substrate dilutions were then combined with an equal volume of NanoLuc diluted to 4 ng/ml in TBS+0.01% BSA. Autoluminescence was measured by combining the 100 uM dilution of substrate with TBS+0.01% BSA. Luminescence and autoluminescence values were measured in a GloMax®-Multi+ luminometer three minutes after substrate addition. Signal decay was measured by combining equal volumes of 100 uM of substrate with 4 ng/ml NanoLuc in TBS+0.01% BSA and then samples were read in five minute intervals for two hours using a GloMax®-Multi+. Km was calculated using GraphPad Prism using nonlinear Michaelis-Menten regression. Signal half-life values were calculated using GraphPad Prism Non-linear decay, plateau set to zero.

NanoLuc [2] = target: T1, NanoLuc; assay: Inhibition of NanoLuc luciferase: blocking of furimazine luminescence after pre-incubation; format: biochemical; settings: for Inhibition of NanoLuc (bioluminescence upon later furimazine addition): compound incubated with NanoLuc first, then furimazine (10 μM) added; for Initial luminescent signal compared with furimazine: incubated with NanoLuc in DMEM for 12 minutes
Procedure: Compounds were also tested for their ability to block furimazine luminescence with NanoLuc. Typically, NanoLuc (0.4 μg/mL) in DMEM was incubated with either furimazine or test compound (50 μM) while monitoring RLU's with a GloMax® luminometer for 10-60 minutes. After the set time, the plate was removed from the instrument, and a dose of furimazine (10 μM) was added to the well containing the test compound and monitored for 10-60 minutes.
FIGS. 3A-B depicts inhibition of Nluc luciferase by furimazine-h. Furimazine-h (10 μM) was incubated with NanoLuc in NanoGlo or DMEM for 15 or 10 minutes, respectively. This bright signal rapidly degrades to a fraction of the signal observed in the furimazine positive control wells.
FIG. 9 depicts inhibition of Nluc luciferase by furimazine-h. This is a reverse addition experiment as compared to FIG. 3. Furimazine (10 μM) was incubated with NanoLuc in NanoGlo® buffer for 15 minutes.
JRW-0855 and JRW-1088 were incubated with NanoLuc in DMEM for 12 minutes. […] After the incubation period, 10 μM furimazine was added to the well.

[3] = Stability in solution noted at preparation; format: physicochemical; settings: note at preparation

T1 sequence (Q9GV45 28-196 with tags or gaps with the stated changes limits assumed): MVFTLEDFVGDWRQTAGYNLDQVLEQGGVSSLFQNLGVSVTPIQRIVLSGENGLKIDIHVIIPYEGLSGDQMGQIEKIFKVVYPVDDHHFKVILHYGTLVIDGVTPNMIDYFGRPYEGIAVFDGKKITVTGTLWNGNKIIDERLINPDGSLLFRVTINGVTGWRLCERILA

Row | SMILES | RLU (at 100 μM) (NanoLuc [1]) | Inhibition of NanoLuc (bioluminescence upon later furimazine addition) (NanoLuc [2]) | Stability in solution [3] | Light output (value set to 1) (NanoLuc [1]; at 2 ng/mL NanoLuc) | Initial luminescent signal compared with furimazine (NanoLuc [2])
1 | CN(C)c1ccc2c(-c3cc(C(=O)NCCCCCCOc4ccc(Cc5nc6c(Cc7ccccc7)[nH]c(-c7ccc(O)cc7)cn-6c5=O)cc4F)ccc3C(=O)[O-])c3ccc(N(C)C)cc3[o+]c2c1 [JRW-0857, 4-((6-(4-((8-benzyl-6-(4-hydroxyphenyl)-3-oxo-3,7-dihydroimidazo[1,2-a]pyrazin-2-yl)methyl)-2-fluorophenoxy)hexyl)carbamoyl)-2-(3,6-bis(dimethylamino)xanthylium-9-yl)benzoate] | 0.00000029 | did not inhibit NanoLuc | instability in solution | – | –
2 | O=C(NCCCCCCCCOc1ccc(Cc2nc3c(Cc4ccccc4)[nH]c(-c4ccc(O)cc4)cn-3c2=O)cc1F)c1cc2cc3c4c(c2oc1=O)CCCN4CCC3 [JRW-1023, N-(8-(4-((8-benzyl-6-(4-hydroxyphenyl)-3-oxo-3,7-dihydroimidazo[1,2-a]pyrazin-2-yl)methyl)-2-fluorophenoxy)octyl)-11-oxo-2,3,6,7-tetrahydro-1H,5H,11H-pyrano[2,3-f]pyrido[3,2,1-ij]quinoline-10-carboxamide] | – | did not inhibit NanoLuc | – | – | –
3 | O=C(NCCCCCCOc1ccc(Cc2nc3c(Cc4ccccc4)[nH]c(-c4ccc(O)cc4)cn-3c2=O)cc1F)c1ccc(C(=O)[O-])c(-c2c3ccc(O)cc3[o+]c3cc(O)ccc23)c1 [JRW-0893, 4-((6-(4-((8-benzyl-6-(4-hydroxyphenyl)-3-oxo-3,7-dihydroimidazo[1,2-a]pyrazin-2-yl)methyl)-2-fluorophenoxy)hexyl)carbamoyl)-2-(3,6-dihydroxyxanthylium-9-yl)benzoate] | 0.05 | exemplary suicide substrates of NanoLuc | – | – | –
4 | O=C(NCCCCCCCCOc1ccc(Cc2nc3c(Cc4ccccc4)[nH]c(-c4ccc(O)cc4)cn-3c2=O)cc1F)c1ccc(-c2c3cc(F)c(O)cc3[o+]c3cc(O)c(F)cc23)c(C(=O)[O-])c1 [JRW-1058, 5-((8-(4-((8-benzyl-6-(4-hydroxyphenyl)-3-oxo-3,7-dihydroimidazo[1,2-a]pyrazin-2-yl)methyl)-2-fluorophenoxy)octyl)carbamoyl)-2-(2,7-difluoro-3,6-dihydroxyxanthylium-9-yl)benzoate] | – | exemplary suicide substrates of NanoLuc | – | – | –
5 | O=c1c(Cc2ccc(OCCCCCCS(=O)(=O)[O-])c(F)c2)nc2c(Cc3ccccc3)[nH]c(-c3ccc(O)cc3)cn1-2.[Na+] [JRW-0892-2, Sodium 6-(4-((8-benzyl-6-(4-hydroxyphenyl)-3-oxo-3,7-dihydroimidazo[1,2-a]pyrazin-2-yl)methyl)-2-fluorophenoxy)hexane-1-sulfonate] | 0.04 | exemplary suicide substrates of NanoLuc | – | – | –
6 | O=c1c(Cc2ccco2)nc2c(Cc3ccccc3)[nH]c(-c3ccccc3)cn1-2 [Furimazine, 8-benzyl-2-(furan-2-ylmethyl)-6-phenylimidazo[1,2-a]pyrazin-3(7H)-one, reference compound] | 1 | – | – | ~2.0×10^7 RLU | –
7 | NCCCCCCCCOc1ccc(Cc2nc3c(Cc4ccccc4)[nH]c(-c4ccc(O)cc4)cn-3c2=O)cc1F [JRW-0904, 2-(4-((8-aminooctyl)oxy)-3-fluorobenzyl)-8-benzyl-6-(4-hydroxyphenyl)imidazo[1,2-a]pyrazin-3(7H)-one] | – | partial Nluc inhibitors | – | – | –
8 | NCCCCCCOc1ccc(Cc2nc3c(Cc4ccccc4)[nH]c(-c4ccc(O)cc4)cn-3c2=O)cc1F [JRW-0855, 2-(4-((6-aminohexyl)oxy)-3-fluorobenzyl)-8-benzyl-6-(4-hydroxyphenyl)imidazo[1,2-a]pyrazin-3(7H)-one] | 0.004 | only partially inhibited | – | – | significantly lower
9 | O=c1ccc2cc(Cc3nc4c(Cc5ccccc5)[nH]c(-c5ccc(O)cc5)cn-4c3=O)ccc2o1 [JRW-0995, 8-benzyl-6-(4-hydroxyphenyl)-2-((2-oxo-2H-chromen-6-yl)methyl)imidazo[1,2-a]pyrazin-3(7H)-one] | 0.009 | partial Nluc inhibitors | – | – | –
10 | NCCOCCOCCC(=O)NCCCCCCCCOc1ccc(Cc2cc3c(Cc4ccccc4)[nH]c(-c4ccc(O)cc4)cn-3c2=O)cc1F [JRW-0925, 3-(2-(2-aminoethoxy)ethoxy)-N-(8-(4-((1-benzyl-3-(4-hydroxyphenyl)-6-oxo-2,6-dihydropyrrolo[1,2-a]pyrazin-7-yl)methyl)-2-fluorophenoxy)octyl)propanamide] | 0.02 | partial Nluc inhibitors | – | – | –
11 | O=C(CCc1ccc2n1[B-](F)(F)[N+]1=C(c3ccc[nH]3)C=CC1=C2)NCCCCCCOc1ccc(Cc2nc3c(Cc4ccccc4)[nH]c(-c4ccc(O)cc4)cn-3c2=O)cc1F [JRW-0900, N-(6-(4-((8-benzyl-6-(4-hydroxyphenyl)-3-oxo-3,7-dihydroimidazo[1,2-a]pyrazin-2-yl)methyl)-2-fluorophenoxy)hexyl)-3-(5,5-difluoro-7-(1H-pyrrol-2-yl)-5H-5l4,6l4-dipyrrolo[1,2-c:2′,1′-f][1,3,2]diazaborinin-3-yl)propanamide] | 0.00094 | did not inhibit NanoLuc | – | – | –
12 | O=C(NCCCCCCCCOc1ccc(Cc2nc3c(Cc4ccccc4)[nH]c(-c4ccc(O)cc4)cn-3c2=O)cc1F)c1cc2ccc(O)cc2oc1=O [JRW-1018, N-(8-(4-((8-benzyl-6-(4-hydroxyphenyl)-3-oxo-3,7-dihydroimidazo[1,2-a]pyrazin-2-yl)methyl)-2-fluorophenoxy)octyl)-7-hydroxy-2-oxo-2H-chromene-3-carboxamide] | – | partial Nluc inhibitors | – | – | –
13 | [N-]=[N+]=NCCCCCCOc1ccc(Cc2nc3c(Cc4ccccc4)[nH]c(-c4ccc(O)cc4)cn-3c2=O)cc1F [JRW-0975, 2-(4-((6-azidohexyl)oxy)-3-fluorobenzyl)-8-benzyl-6-(4-hydroxyphenyl)imidazo[1,2-a]pyrazin-3(7H)-one] | 0.005 | exemplary suicide substrates of NanoLuc | – | – | –
14 | O=C(CCOCCOCCNC(=O)c1ccc(C(=O)[O-])c(-c2c3ccc(O)cc3[o+]c3cc(O)ccc23)c1)NCCCCCCCCOc1ccc(Cc2cc3c(Cc4ccccc4)[nH]c(-c4ccc(O)cc4)cn-3c2=O)cc1F [JRW-0926, 4-((2-(2-(3-((8-(4-((1-benzyl-3-(4-hydroxyphenyl)-6-oxo-2,6-dihydropyrrolo[1,2-a]pyrazin-7-yl)methyl)-2-fluorophenoxy)octyl)amino)-3-oxopropoxy)ethoxy)ethyl)carbamoyl)-2-(3,6-dihydroxyxanthylium-9-yl)benzoate] | 0.04 | exemplary suicide substrates of NanoLuc | – | – | –
15 | Cc1cc(C)n2c1C(CCNC(=O)CCC(=O)NCCCCCCCCOc1ccc(Cc3nc4c(Cc5ccccc5)[nH]c(-c5ccc(O)cc5)cn-4c3=O)cc1F)=C1C=CC=[N+]1[B-]2(F)F [JRW-1088, N1-(8-(4-((8-benzyl-6-(4-hydroxyphenyl)-3-oxo-3,7-dihydroimidazo[1,2-a]pyrazin-2-yl)methyl)-2-fluorophenoxy)octyl)-N4-(2-(5,5-difluoro-1,3-dimethyl-5H-5λ^4,6λ^4-dipyrrolo[1,2-c:2′,1′-f][1,3,2]diazaborinin-10-yl)ethyl)succinamide] | – | only partially inhibited | – | – | significantly lower
16 | O=C(NCCCCCCCCOc1ccc(Cc2nc3c(Cc4ccccc4)[nH]c(-c4ccc(O)cc4)cn-3c2=O)cc1F)c1ccc(-c2c3ccc4cc(O)ccc4c3[o+]c3c2ccc2cc(O)ccc23)c(C(=O)[O-])c1 [JRW-1059, 5-((8-(4-((8-benzyl-6-(4-hydroxyphenyl)-3-oxo-3,7-dihydroimidazo[1,2-a]pyrazin-2-yl)methyl)-2-fluorophenoxy)octyl)carbamoyl)-2-(3,11-dihydroxydibenzo[c,h]xanthen-14-ium-7-yl)benzoate] | – | NanoLuc is not inhibited | – | – | –
